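1) Cells in 96-well plates. 2) Compound, 48 h, 5 concentrations. 3) Linear interpolation between surrounding doses. 4) Unreached endpoint = highest concentration. Here, GI50 denotes the concentration required for 50% inhibition of growth.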 Calls of active or inactive are those of the source. Cut-off read from the data, not from the text of the source: active = GI50 up to about 1.1 µM and inactive = higher.
Tests used:
Experiment in all cases: growth of human tumour cells (NCI), 48 h
M19-MEL = system: M19-MEL
RXF 631 = system: RXF 631
LXFL 529 = system: LXFL 529
DMS-273 = system: DMS-273
HOP-18 = system: HOP-18
DMS-114 = system: DMS-114
XF498 = system: XF498
DLD-1 = system: DLD-1
MDA-MB-231 = system: MDA-MB-231

Measured: GI50

O=S(=O)(N/N=C/c1c(Cl)cccc1Cl)c1ccccc1
inactive: M19-MEL > 100 µM | RXF 631 > 100 µM | LXFL 529 > 100 µM | DMS-273 > 100 µM | HOP-18 > 100 µM | DMS-114 > 100 µM | XF498 68.4 µM | DLD-1 > 100 µM

CN(/N=C/c1cccc2cccnc12)c1ccc([N+](=O)[O-])cc1[N+](=O)[O-]
inactive: M19-MEL > 78 µM | RXF 631 36.1 µM | LXFL 529 > 100 µM | DMS-273 34.4 µM | HOP-18 > 100 µM | DMS-114 20.2 µM | MDA-MB-231 23.1 µM | XF498 6.01 µM | DLD-1 44.7 µM

Reference: ChEMBL document CHEMBL1201862, “PubChem BioAssay data set” (2004)
